From patent US9458104B2 (priority 2012, dated 2016)

Experiments:
[1] = target: T1, RORγ ligand binding domain (LBD) (Homo sapiens, UniProt P51449); test: TR-FRET Activity Assay (ligand sensing assay, RORγ-LBD / coactivator peptide interaction); assay type: biochemical
T1 construct: made in house; host or cells: E. coli BL-21 (BL3), vector pDEST15
T1 sequence (P51449 269-508 limits assumed): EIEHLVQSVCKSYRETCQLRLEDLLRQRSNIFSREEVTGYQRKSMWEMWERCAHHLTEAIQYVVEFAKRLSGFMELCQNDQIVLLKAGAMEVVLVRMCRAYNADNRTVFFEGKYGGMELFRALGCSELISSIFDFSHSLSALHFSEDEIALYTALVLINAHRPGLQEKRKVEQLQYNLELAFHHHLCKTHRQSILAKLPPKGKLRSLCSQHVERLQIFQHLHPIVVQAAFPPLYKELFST
Summary of the method: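 GST-RORγ LBD expressed in bacteria, 20–60 ng/well, with biotinylated coactivator peptide 200–600 nM, streptavidin-APC and Eu-anti-GST. Buffer: 20 mM Tris-HCl pH 6.8, 60 mM KCl, 1 mM DTT, 5 mM MgCl2, BSA; 1% DMSO. LANCE TR-FRET 665/615 nm ratio; IC50 from four-parameter logistic fit.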

[2] = target: T2, RORγ (UniProt P51449); assay type: cell-based; settings: 293T cells, 16 h; for pIC50 (FF): firefly (FF) luciferase; for pIC50 (REN): renilla normalised (RENnorm) luciferase
T2 construct: hRORg-LBD|aa259-518|NP_005051.2; hRORgt|aa1-497|NP_001001523 (RORg, t isoform, 497aa); mRORg-LBD|aa264-516|NP_035411
T2 sequence (P51449 1-518): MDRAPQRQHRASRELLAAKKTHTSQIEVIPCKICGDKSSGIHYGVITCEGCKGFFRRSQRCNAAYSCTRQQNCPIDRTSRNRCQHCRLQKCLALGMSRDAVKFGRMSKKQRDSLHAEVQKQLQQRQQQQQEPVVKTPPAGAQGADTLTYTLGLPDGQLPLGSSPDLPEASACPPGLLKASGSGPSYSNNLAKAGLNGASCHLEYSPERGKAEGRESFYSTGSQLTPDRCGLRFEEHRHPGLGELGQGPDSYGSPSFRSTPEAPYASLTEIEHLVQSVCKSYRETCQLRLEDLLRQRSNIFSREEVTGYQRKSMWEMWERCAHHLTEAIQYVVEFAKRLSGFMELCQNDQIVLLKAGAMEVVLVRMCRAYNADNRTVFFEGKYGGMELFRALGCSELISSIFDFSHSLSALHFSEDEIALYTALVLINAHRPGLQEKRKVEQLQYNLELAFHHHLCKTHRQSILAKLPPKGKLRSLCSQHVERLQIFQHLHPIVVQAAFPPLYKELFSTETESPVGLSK

Cc1c(C(=O)N[C@H]2C[C@H](C(=O)O)C2)cn(-c2cc(C(C)(C)C)cc(C3(C)CC3)c2)c1C(=O)C1CCCCC1 [Example 6, (trans)-3-(1-(3-(tert-Butyl)-5-(1-methylcyclopropyl)phenyl)-5-(cyclohexanecarbonyl)-4-methyl-1H-pyrrole-3-carboxamido)cyclobutanecarboxylic acid]
IC50 [1]: 501 nM
pIC50 (FF) [2]: 7.9
pIC50 (REN) [2]: 8.0

Cn1c(C(=O)N[C@H]2C[C@H](C(=O)O)C2)cc(-c2cc(C(C)(C)C)cc(C3(C)CC3)c2)c1CC1CCCCC1 [Example 8, (trans)-3-(4-(3-(tert-BUTYL)-5-(1-methylcyclopropyl)phenyl)-5-(cyclohexylmethyl)-1-methyl-1H-pyrrole-2-carboxamido)cyclobutanecarboxylic acid]
IC50 [1]: 1000 nM
pIC50 (FF) [2]: 7.6
pIC50 (REN) [2]: 7.7

Cn1c(C(=O)NCCC(C)(C)C(=O)O)cc(-c2ccc(S(=O)(=O)NC(C)(C)C)c(C(C)(C)C)c2)c1CC1CCCCC1 [Example 8/1]
IC50 [1]: 2000 nM
pIC50 (FF) [2]: 7.0
pIC50 (REN) [2]: 7.0

Cc1c(C(=O)NCCC(C)(C)C(=O)O)c(Cl)n(-c2ccc(S(=O)(=O)NC(C)(C)C)c(C(F)(F)F)c2)c1CC1CCCCC1 [Example 9, 4-(1-(4-(N-(tert-Butyl)sulfamoyl)-3-(trifluoromethyl)phenyl)-2-chloro-5-(cyclohexylmethyl)-4-methyl-1H-pyrrole-3-carboxamido)-2,2-dimethylbutanoic acid]
IC50 [1]: 794 nM
pIC50 (FF) [2]: 8.4
pIC50 (REN) [2]: 8.4

Cc1c(C(=O)NCCC(C)(C)C(=O)O)c(C#N)n(-c2ccc(S(=O)(=O)NC(C)(C)C)c(C(F)(F)F)c2)c1CC1CCCCC1 [Example 10, 4-(1-(4-(N-(tert-Butyl)sulfamoyl)-3-(trifluoromethyl)phenyl)-2-cyano-5-(cyclohexylmethyl)-4-methyl-1H-pyrrole-3-carboxamido)-2,2-dimethylbutanoic acid]
IC50 [1]: 1580 nM
pIC50 (FF) [2]: 6.9
pIC50 (REN) [2]: 6.9

CC(C)(C)c1cc(-c2[nH]c(C(=O)NC3CCOCC3)cc2CC2CCCCC2)cc(C2(C)CC2)c1 [Example 12, 5-(3-(tert-Butyl)-5-(1-methylcyclopropyl)phenyl)-4-(cyclohexylmethyl)-N-(tetrahydro-2H-pyran-4-yl)-1H-pyrrole-2-carboxamide]
IC50 [1]: 1000 nM
pIC50 (FF) [2]: 6.9
pIC50 (REN) [2]: 6.8

CC(C)(C)c1cc(-c2[nH]c(C(=O)N[C@H]3C[C@H](C(=O)O)C3)cc2CC2CCCCC2)cc(C2(C)CC2)c1 [Example 12/2]
IC50 [1]: 1260 nM
pIC50 (FF) [2]: 6.6
pIC50 (REN) [2]: 6.6

Cc1c(C(=O)NC2CCOCC2)cn(-c2cc(C(C)(C)C)cc(C3(C)CC3)c2)c1C(=O)N1CCCCC1 [Example 13, 1-(3-(tert-Butyl)-5-(1-methylcyclopropyl)phenyl)-4-methyl-5-(piperidine-1-carbonyl)-N-(tetrahydro-2H-pyran-4-yl)-1H-pyrrole-3-carboxamide]
IC50 [1]: 1000 nM
pIC50 (FF) [2]: 7.1
pIC50 (REN) [2]: 7.1

Cc1c(C(=O)N[C@H]2C[C@H](C(=O)O)C2)cn(-c2cc(C(C)(C)C)cc(C3(C)CC3)c2)c1C(=O)N1CCCCC1 [Example 13/1]
IC50 [1]: 1000 nM
pIC50 (FF) [2]: 6.7
pIC50 (REN) [2]: 6.8

COC(c1c(C)c(C(=O)NC2CCOCC2)cn1-c1cc(C(C)(C)C)cc(C2(C)CC2)c1)C1CCCCC1 (stereo not drawn) [Example 14, 1-(3-(tert-Butyl)-5-(1-methylcyclopropyl)phenyl)-5-(cyclohexyl(methoxy)methyl)-4-methyl-N-(tetrahydro-2H-pyran-4-yl)-1H-pyrrole-3-carboxamide]
IC50 [1]: 2000 nM
pIC50 (FF) [2]: 6.1
pIC50 (REN) [2]: 6.3

COC(c1c(C)c(C(=O)N[C@H]2C[C@H](C(=O)O)C2)cn1-c1cc(C(C)(C)C)cc(C2(C)CC2)c1)C1CCCCC1 (stereo partly drawn) [Example 14/1]
IC50 [1]: 1580 nM
pIC50 (FF) [2]: 6.6
pIC50 (REN) [2]: 6.6

Cc1c(C(=O)NC2CCOCC2)cn(-c2cc(C(C)(C)C)cc(C3(C)CC3)c2)c1C(O)C1CCCCC1 (stereo not drawn) [Example 15, 1-(3-(tert-Butyl)-5-(1-methylcyclopropyl)phenyl)-5-(cyclohexyl(hydroxy)methyl)-4-methyl-N-(tetrahydro-2H-pyran-4-yl)-1H-pyrrole-3-carboxamide]
IC50 [1]: 631 nM
pIC50 (FF) [2]: 7.0
pIC50 (REN) [2]: 7.0

Cc1c(C(=O)N[C@H]2C[C@H](C(=O)O)C2)c(C)n(-c2cc(C(C)(C)O)cc(C3(C)CC3)c2)c1CC1CCCCC1 [Example 16, trans-3-(5-(Cyclohexylmethyl)-1-(3-(2-hydroxypropan-2-yl)-5-(1-methylcyclopropyl)phenyl)-2,4-dimethyl-1H-pyrrole-3-carboxamido)cyclobutanecarboxylic acid]
IC50 [1]: 1580 nM
pIC50 (FF) [2]: 6.6
pIC50 (REN) [2]: 6.7

CC(C)(O)c1cc(-c2cc(C(=O)N[C@H]3C[C@H](C(=O)O)C3)[nH]c2CC2CCCCC2)cc(C2(C)CC2)c1 [Example 17, trans-3-(5-(Cyclohexylmethyl)-4-(3-(2-hydroxypropan-2-yl)-5-(1-methylcyclopropyl)phenyl)-1H-pyrrole-2-carboxamido)cyclobutanecarboxylic acid]
IC50 [1]: 1260 nM
pIC50 (FF) [2]: 6.4
pIC50 (REN) [2]: 6.3

CC(C)(C)c1cc(-c2cc(C(=O)N[C@H]3C[C@H](C(=O)O)C3)[nH]c2CC2CCCCC2)cc(C2(C)CC2)c1 [Example 17/1]
IC50 [1]: 794 nM
pIC50 (FF) [2]: 7.0
pIC50 (REN) [2]: 7.1

CC(C)(C)c1cc(-c2[nH]c(C(=O)N[C@H]3C[C@H](C(=O)O)C3)c(Cl)c2CC2CCCCC2)cc(C2(C)CC2)c1 [Example 18, trans-3-(5-(3-(tert-Butyl)-5-(1-methylcyclopropyl)phenyl)-3-chloro-4-(cyclohexylmethyl)-1H-pyrrole-2-carboxamido)cyclobutanecarboxylic acid]
IC50 [1]: 1260 nM
pIC50 (FF) [2]: 6.6
pIC50 (REN) [2]: 6.5

Cn1c(C(=O)N[C@H]2C[C@H](C(=O)O)C2)c(Cl)c(CC2CCCCC2)c1-c1cc(C(C)(C)C)cc(C2(C)CC2)c1 [Example 18/1]
IC50 [1]: 794 nM
pIC50 (FF) [2]: 6.6
pIC50 (REN) [2]: 6.7

Cn1c(C(=O)N[C@H]2C[C@H](C(=O)O)C2)cc(CC2CCCCC2)c1-c1cc(C(C)(C)C)cc(C2(C)CC2)c1 [Example 19/1]
IC50 [1]: 794 nM
pIC50 (FF) [2]: 7.2
pIC50 (REN) [2]: 7.2

Cn1c(CC2CCCCC2)c(-c2cc(C(C)(C)C)cc(C3(C)CC3)c2)c(Cl)c1C(=O)N[C@H]1C[C@H](C(=O)O)C1 [Example 20, trans-3-(4-(3-(tert-Butyl)-5-(1-methylcyclopropyl)phenyl)-3-chloro-5-(cyclohexylmethyl)-1-methyl-1H-pyrrole-2-carboxamido)cyclobutanecarboxylic acid]
IC50 [1]: 3980 nM
pIC50 (FF) [2]: 7.2
pIC50 (REN) [2]: 7.3

Cc1c(C(=O)N[C@H]2C[C@H](C(=O)O)C2)cn(-c2cc(C(C)(C)C)cc(C3(C)CC3)c2)c1SC1CCCCC1 [Example 21, trans-3-(1-(3-(tert-Butyl)-5-(1-methylcyclopropyl)phenyl)-5-(cyclohexylthio)-4-methyl-1H-pyrrole-3-carboxamido)cyclobutanecarboxylic acid]
IC50 [1]: 794 nM
pIC50 (FF) [2]: 8.0
pIC50 (REN) [2]: 8.2
